Reference: the supplement of paper PMC11061612

Key:
AZD7648 = compound: Cc1cc2ncnn2cc1Nc1ncc2c(n1)n(C1CCOCC1)c(=O)n2C [AZD7648]; conditions: max 10 µM
Procedure, shortened: (§1)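 Cancer cell lines in 1536-well plates (7.5 μl DMEM/F12 or RPMI, 10% FBS) were held 24 hours at 37°C and 5% CO2 and then dosed for 72 hours at a final DMSO of typically 0.2%. Viability was taken from CellTiter-Glo 2.0 luminescence, scaled between blank-well and DMSO-well means. Curves were fitted as two-parameter logistic models with a non-linear mixed effects model, from which the single-agent IC50 was taken.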

Crizotinib = compound: C[C@@H](Oc1cc(-c2cnn(C3CCNCC3)c2)cnc1N)c1c(Cl)ccc(F)c1Cl [Crizotinib]; conditions: max 10 µM
Procedure, shortened: as §1

Venetoclax = compound: CC1(C)CCC(CN2CCN(c3ccc(C(=O)NS(=O)(=O)c4ccc(NCC5CCOCC5)c([N+](=O)[O-])c4)c(Oc4cnc5[nH]ccc5c4)c3)CC2)=C(c2ccc(Cl)cc2)C1 [Venetoclax]; conditions: max 1 µM
Procedure, shortened: as §1

Gemcitabine = compound: Nc1ccn([C@@H]2O[C@H](CO)[C@@H](O)C2(F)F)c(=O)n1 [Gemcitabine]; conditions: max 0.3 µM
Procedure, shortened: as §1

Prexasertib = compound: COc1cccc(OCCCN)c1-c1cc(Nc2cnc(C#N)cn2)n[nH]1 [Prexasertib]; conditions: max 1 µM
Procedure, shortened: as §1

AZD4320 = compound: CN(CC[C@H](CSC1=CC=CC=C1)NC2=C(C=C(C=C2)S(=O)(=O)NC(=O)C3=CC=C(C=C3)N4CCC(CC4)[C@H](C5=CC=CC=C5C6=CC=C(C=C6)Cl)O)S(=O)(=O)C(F)(F)F)CCO [AZD4320]; conditions: max 1 µM
Procedure, shortened: as §1

Olaparib = compound: O=C(c1cc(Cc2n[nH]c(=O)c3ccccc23)ccc1F)N1CCN(C(=O)C2CC2)CC1 [Olaparib]; conditions: max 10 µM
Procedure, shortened: as §1

AZD5991 = compound: Cc1c2c(nn1C)CSCc1cc(n(C)n1)CSc1cc(c3ccccc3c1)OCCCc1c(C(=O)O)n(C)c3c-2c(Cl)ccc13 [AZD5991]; conditions: max 1 µM
Procedure, shortened: as §1

AZD1390 = compound: CC(C)n1c(=O)n(C)c2cnc3cc(F)c(-c4ccc(OCCCN5CCCCC5)nc4)cc3c21 [AZD1390]; conditions: max 0.3 µM
Procedure, shortened: as §1

Selumetinib = compound: Cn1cnc2c(F)c(Nc3ccc(Br)cc3Cl)c(C(=O)NOCCO)cc21 [Selumetinib]; conditions: max 10 µM
Procedure, shortened: as §1

AZD8186 = compound: C[C@@H](Nc1cc(F)cc(F)c1)c1cc(C(=O)N(C)C)cc2c(=O)cc(N3CCOCC3)oc12 [AZD8186]; conditions: max 10 µM
Procedure, shortened: as §1

AZD5153 = compound: COc1nnc2ccc(N3CCC(c4ccc(OCCN5CCN(C)C(=O)[C@H]5C)cc4)CC3)nn12 [AZD5153]; conditions: max 1 µM
Procedure, shortened: as §1

AZD5363 = compound: C1CN(CCC1(C(=O)N[C@@H](CCO)C2=CC=C(C=C2)Cl)N)C3=NC=NC4=C3C=CN4 [AZD5363]; conditions: max 10 µM
Procedure, shortened: as §1

Gefitinib = compound: COc1cc2ncnc(Nc3ccc(F)c(Cl)c3)c2cc1OCCCN1CCOCC1 [Gefitinib]; conditions: max 10 µM
Procedure, shortened: as §1

Doxorubicin = compound: COc1cccc2c1C(=O)c1c(O)c3c(c(O)c1C2=O)C[C@@](O)(C(=O)CO)C[C@@H]3O[C@H]1C[C@H](N)[C@H](O)[C@H](C)O1 [Doxorubicin]; conditions: max 1 µM
Procedure, shortened: as §1

AZD6738 = compound: C[C@@H]1COCCN1C2=NC(=NC(=C2)C3(CC3)[S@](=N)(=O)C)C4=C5C=CNC5=NC=C4 [AZD6738]; conditions: max 10 µM
Procedure, shortened: as §1

Taselisib = compound: Cc1nc(-c2cn3c(n2)-c2ccc(-c4cnn(C(C)(C)C(N)=O)c4)cc2OCC3)n(C(C)C)n1 [Taselisib]; conditions: max 10 µM
Procedure, shortened: as §1

SRA737 = compound: N#Cc1cnc(Nc2cc(NC[C@H]3CNCCO3)c(C(F)(F)F)cn2)cn1 [SRA737]; conditions: max 10 µM
Procedure, shortened: as §1

Paclitaxel = compound: CC(=O)O[C@H]1C(=O)[C@@]2(C)[C@H]([C@H](OC(=O)c3ccccc3)[C@]3(O)C[C@H](OC(=O)[C@H](O)[C@@H](NC(=O)c4ccccc4)c4ccccc4)C(C)=C1C3(C)C)[C@]1(OC(C)=O)CO[C@@H]1C[C@@H]2O [Paclitaxel]; conditions: max 3 µM
Procedure, shortened: as §1

SG3199 = compound: CC1=CN2[C@@H](C1)C=NC3=CC(=C(C=C3C2=O)OC)OCCCCCOC4=C(C=C5C(=C4)N=C[C@@H]6CC(=CN6C5=O)C)OC [SG3199]; conditions: max 0.001 µM
Procedure, shortened: as §1

SN-38 = compound: CCc1c2c(nc3ccc(O)cc13)-c1cc3c(c(=O)n1C2)COC(=O)[C@]3(O)CC [SN-38]; conditions: max 0.3 µM
Procedure, shortened: as §1

AZD2811 = compound: CCN(CCO)CCCOc1ccc2c(Nc3cc(CC(=O)Nc4cccc(F)c4)[nH]n3)ncnc2c1 [AZD2811]; conditions: max 1 µM
Procedure, shortened: as §1

Lapatinib = compound: CS(=O)(=O)CCNCc1ccc(-c2ccc3ncnc(Nc4ccc(OCc5cccc(F)c5)c(Cl)c4)c3c2)o1 [Lapatinib]; conditions: max 10 µM
Procedure, shortened: as §1

AZD0156 = compound: CN(C)CCCOc1ccc(-c2ccc3ncc4c(c3c2)n(C2CCOCC2)c(=O)n4C)cn1 [AZD0156]; conditions: max 3 µM
Procedure, shortened: as §1

Etoposide = compound: COc1cc([C@@H]2c3cc4c(cc3[C@@H](O[C@@H]3O[C@@H]5CO[C@@H](C)O[C@H]5[C@H](O)[C@H]3O)[C@H]3COC(=O)[C@H]23)OCO4)cc(OC)c1O [Etoposide]; conditions: max 10 µM
Procedure, shortened: as §1

AZD1775 = compound: C=CCn1c(=O)c2cnc(Nc3ccc(N4CCN(C)CC4)cc3)nc2n1-c1cccc(C(C)(C)O)n1 [AZD1775]; conditions: max 3 µM
Procedure, shortened: as §1

MK-2206 = compound: NC1(c2ccc(-c3nc4ccn5c(=O)[nH]nc5c4cc3-c3ccccc3)cc2)CCC1 [MK-2206]; conditions: max 10 µM
Procedure, shortened: as §1

Alisertib = compound: COc1cc(Nc2ncc3c(n2)-c2ccc(Cl)cc2C(c2c(F)cccc2OC)=NC3)ccc1C(=O)O [Alisertib]; conditions: max 10 µM
Procedure, shortened: as §1

Dasatinib = compound: CC1=C(C(=CC=C1)Cl)NC(=O)C2=CN=C(S2)NC3=CC(=NC(=N3)C)N4CCN(CC4)CCO [Dasatinib]; conditions: max 2 µM
Procedure, shortened: as §1

5-Fluorouracil = compound: O=c1[nH]cc(F)c(=O)[nH]1 [5-Fluorouracil]; conditions: max 20 µM
Procedure, shortened: as §1

Palbociclib = compound: CC(=O)c1c(C)c2cnc(Nc3ccc(N4CCNCC4)cn3)nc2n(C2CCCC2)c1=O [Palbociclib]; conditions: max 10 µM
Procedure, shortened: as §1

[1] = compound: O=C(Nc1ccc2[nH]nc(-c3ccncc3)c2c1)[C@@H]1CCN(CC(=O)N2CCN(c3ccc(-c4ncccn4)cc3)CC2)C1; conditions: max 5 µM
Procedure, shortened: as §1

Carboplatin = compound: C1CC(C1)(C(=O)[O-])C(=O)[O-].N.N.[Pt+2] [Carboplatin]; conditions: max 10 µM
Procedure, shortened: as §1

Trametinib = compound: CC(=O)Nc1cccc(-n2c(=O)n(C3CC3)c(=O)c3c(Nc4ccc(I)cc4F)n(C)c(=O)c(C)c32)c1 [Trametinib]; conditions: max 1 µM
Procedure, shortened: as §1

Savolitinib = compound: C[C@@H](c1ccc2nccn2c1)n1nnc2ncc(-c3cnn(C)c3)nc21 [Savolitinib]; conditions: max 1 µM
Procedure, shortened: as §1

Cell Line	IC50, cell viability 72 h (AZD7648) [µM]	IC50, cell viability 72 h (Crizotinib) [µM]	IC50, cell viability 72 h (Venetoclax) [µM]	IC50, cell viability 72 h (Gemcitabine) [µM]	IC50, cell viability 72 h (Prexasertib) [µM]	IC50, cell viability 72 h (AZD4320) [µM]	IC50, cell viability 72 h (Olaparib) [µM]	IC50, cell viability 72 h (AZD5991) [µM]	IC50, cell viability 72 h (AZD1390) [µM]	IC50, cell viability 72 h (Selumetinib) [µM]	IC50, cell viability 72 h (AZD8186) [µM]	IC50, cell viability 72 h (AZD5153) [µM]	IC50, cell viability 72 h (AZD5363) [µM]	IC50, cell viability 72 h (Gefitinib) [µM]	IC50, cell viability 72 h (Doxorubicin) [µM]	IC50, cell viability 72 h (AZD6738) [µM]	IC50, cell viability 72 h (Taselisib) [µM]	IC50, cell viability 72 h (SRA737) [µM]	IC50, cell viability 72 h (Paclitaxel) [µM]	IC50, cell viability 72 h (SG3199) [µM]	IC50, cell viability 72 h (SN-38) [µM]	IC50, cell viability 72 h (AZD2811) [µM]	IC50, cell viability 72 h (Lapatinib) [µM]	IC50, cell viability 72 h (AZD0156) [µM]	IC50, cell viability 72 h (Etoposide) [µM]	IC50, cell viability 72 h (AZD1775) [µM]	IC50, cell viability 72 h (MK-2206) [µM]	IC50, cell viability 72 h (Alisertib) [µM]	IC50, cell viability 72 h (Dasatinib) [µM]	IC50, cell viability 72 h (5-Fluorouracil) [µM]	IC50, cell viability 72 h (Palbociclib) [µM]	IC50, cell viability 72 h [1] [µM]	IC50, cell viability 72 h (Carboplatin) [µM]	IC50, cell viability 72 h (Trametinib) [µM]	IC50, cell viability 72 h (Savolitinib) [µM]
BFTC-905 (Bladder Carcinoma)	> 10	5.24	> 1	0.0107	0.117	> 1	> 10	> 1	> 0.3	6.56	> 10	0.173	> 10	> 10	0.196	3.79	1.39	> 10	0.00602	> 0.001	0.00455	> 1	> 10	> 3	1.16	0.68	> 10	1.25	1.53	> 20	> 10	1.05	> 10	0.0864	> 1
BL-41 (Burkitt's Lymphoma)	> 10	2.44	> 1	0.0085	0.00367	> 1	> 10	0.0482	> 0.3	> 10	> 10	0.046	> 10	> 10	0.0377	0.618	> 10	2	0.00391	> 0.001	0.00217	0.048	6.1	> 3	0.342	0.264	> 10	0.0285	> 2	> 20	> 10	> 5	> 10	> 1	> 1
CAMA-1 (Breast Carcinoma)	> 10	> 10	> 1	> 0.3	> 1	> 1	> 10	> 1	> 0.3	> 10	7.76	> 1	4.86	> 10	> 1	> 10	> 10	> 10	0.112	> 0.001	> 0.3	> 1	> 10	> 3	> 10	> 3	> 10	> 10	> 2	> 20	> 10	> 5	> 10	> 1	> 1
DND-41 (T-Lymphoblastic Leukemia)	> 10	4.77	0.546	0.0954	0.00675	0.0338	> 10	> 1	> 0.3	> 10	> 10	0.595	> 10	> 10	0.424	1.5	> 10	1.09	> 3	> 0.001	0.00288	> 1	7.51	> 3	0.763	0.334	> 10	> 10	> 2	> 20	> 10	> 5	> 10	> 1	> 1
ES1 (Ewing's Sarcoma)	> 10	2.48	> 1	0.00261	0.0135	> 1	4.47	0.435	> 0.3	> 10	8.67	0.604	> 10	> 10	0.101	1.73	1.05	2	< 0.003	> 0.001	0.0031	0.51	> 10	> 3	0.335	0.784	3.97	2.37	> 2	9.22	2.17	> 5	> 10	> 1	> 1
